Data as given in US7968572B2, “Nitrogen-containing heterocyclic compound and pharmaceutical application thereof” (Ono Pharmaceuticals Co., Ltd., priority 2005, dated 2011).

Legend:
[1] = biological target: T1, recombinant human p38α MAP kinase (Homo sapiens, UniProt Q16539); assay: Study on p38α MAP kinase inhibitory activity (ATF2 phosphorylation, Alpha Screen); assay type: biochemical; details: biotinylated ATF2 substrate, 30° C. for 30 minutes
T1 construct: purchased Upstate Biotechnology #14-251
T1 sequence (Q16539 whole entry): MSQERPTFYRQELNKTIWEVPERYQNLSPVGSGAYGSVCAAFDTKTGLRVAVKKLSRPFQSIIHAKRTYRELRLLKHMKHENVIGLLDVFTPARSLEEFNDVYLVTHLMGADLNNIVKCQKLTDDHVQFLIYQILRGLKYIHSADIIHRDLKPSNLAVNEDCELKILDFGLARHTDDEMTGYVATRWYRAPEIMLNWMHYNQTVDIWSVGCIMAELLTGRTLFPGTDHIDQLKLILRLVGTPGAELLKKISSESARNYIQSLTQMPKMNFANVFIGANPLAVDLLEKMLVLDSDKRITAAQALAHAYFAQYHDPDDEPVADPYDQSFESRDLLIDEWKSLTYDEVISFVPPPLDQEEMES
Description: Study on p38α MAP Kinase Inhibitory Activity
Using activating transcription factor-2 (hereinafter abbreviated to ATF2) which is a substrate for p38α MAP kinase, the inhibitory action of the compounds of the present invention was investigated on the phosphorylation by a recombinant human p38α MAP kinase.
A kinase buffer (25 mM Tris-HCl (pH 7.5), 5 mM β-glycerophosphate, 2 mM dithiothreitol, 0.1 mM Na3VO4, 10 mM MgCl2) containing a recombinant human p38α MAP kinase (Upstate Biotechnology #14-251) was added to a 384-well plate (5 μL) (6.25 ng protein/well) for fluorescence measurement. After addition of a kinase buffer (5 μL) containing the compound of the present invention, the resulting mixture was incubated at room temperature for 20 minutes. A substrate mixture (5 μL) of biotinylated ATF2 of 5 μg/mL (Upstate Biotechnology #14-432), adenosine triphosphate (90 μmol/L) (Sigma #FL-AAS) and anti-phosphorylated ATF2 antibody (20-fold dilution) (Cell Signaling Technology #9221L) prepared separately was added thereto, and enzyme reaction was carried out at 30° C. for 30 minutes. After the reaction, Hepes buffer (5 μL) containing 0.25% BSA and 100 mM EDTA was added to stop the enzyme reaction. The amount of a complex of the phosphorylated ATF2 and anti-phosphorylated ATF2 antibody produced by the reaction was measured using an Alpha Screen™ Rabbit Detection kit (Packard #6760607).
The p38α MAP kinase inhibitory activity, which is the effect of the compound of the present invention, was calculated as an inhibition rate (%) according to the following equation: Inhibition rate (%)={(AC−AX)/(AC−AB)}×100
wherein AB is a measured value without addition of the enzyme;
AC is a measured value with addition of the enzyme in the absence of a test compound; and
AX is a measured value with addition of the enzyme in the presence of a test compound.
(§1) Inhibition rate of compounds with each concentration was calculated, and a value indicating 50% inhibition (IC50) was determined from the inhibition curve.

[2] = test system: TNF-α production stimulated by lipopolysaccharide (LPS) in THP-1; assay: Inhibitory activity against TNF-α production using human cell lines (LPS-stimulated THP-1); assay type: cell-based; details: 1.5 h, THP-1 cells, LPS stimulation, 90 minutes at 37° C., TNF-α by ELISA
Description: Inhibitory Activity against TNF-α Production using Human Cell Lines
Using THP-1 which is a human monocytic cell line, the inhibitory effect of the compound of the present invention against TNF-α production stimulated by lipopolysaccharide (LPS) was studied.
Each 50 μL of lipopolysaccharide (LPS; 055:B5, Difco) prepared to a concentration of 40 ng/mL using RPMI-1640 medium containing 10% fetal calf serum (hereinafter abbreviated to RPMI-1640) and RPMI-1640 containing the compound of the present invention was added to a 96-well plate for cell culture. 100 μL of the cell suspension of THP-1 (Dainippon Pharmaceutical Co., Ltd, #06-202) prepared to a cell density of 2×10^6 cells/mL using RPMI-1640 was added and cultured for 90 minutes at 37° C. in an incubator (5% CO2, 95% air). After completion of the reaction, the culture medium supernatant was recovered and the amount of produced TNF-α was measured using an ELISA kit (Invitrogen, #850090192).
The inhibitory activity against TNF-α production, which is the effect of the compound of the present invention, was calculated as an inhibition rate (%) by the following equation: Inhibition rate (%)={(AC−AX)/(AC−AB)}×100
wherein AB is a measured value without LPS induction;
AC is a measured value with LPS induction in the absence of a test compound; and
AX is a measured value with LPS induction in the presence of a test compound.
as §1

[3] = test system: TNF-α production induced by lipopolysaccharide (LPS) in rats; assay: Rat cytokine-production model; assay type: in vivo; details: male SD rat, oral 0.3 mg/kg, LPS 10 μg/kg intravenously after 8 hours, plasma TNF-α ninety minutes after LPS; read-out: Inhibition rate (%) (Dose of compound: 0.3 mg/kg)
Description: Rat Cytokine-Production Model
The in vivo effect of the compound of the present invention was studied on TNF-α production induced by lipopolysaccharide (LPS) in rats.
A vehicle containing the compound of the present invention was orally administered to male SD rat (Charles River Japan, Inc.), and after 8 hours, lipopolysaccharide (LPS, 055:B5, Difco) was intravenously administered at the dose of 10 μg/kg (5 animals/group). Only a vehicle was orally administered to a control group (5 animals). Ninety minutes after the LPS treatment, heparinized blood collection was performed via the abdominal vena cava under anesthesia with ether, and blood plasma was obtained by centrifugation (12,000 rpm, 3 minutes, 4° C.). The obtained blood plasma sample was stored at −80° C. until it was used. TNF-α in the blood plasma was measured using an ELISA kit from R&D System (#RTA00).
The inhibitory activity of the compound of the present invention against TNF-α production was calculated as an inhibition rate (%) according to the following equation: Inhibition rate (%)={(AC−AX)/AC}×100
wherein AC is a measured value in case where no test compound was administered under LPS induction, and
AX is a measured value in case where a test compound was administered under LPS induction.

[4] = Evaluation of artificial lipid membrane binding using a Biacore S51 system
Description: Evaluation of Artificial Lipid Membrane Binding using a Biacore S51 (Registered Trademark) System
Using an aspirator, 10 mM of 1,2-dioleoyl-sn-glycero-3-phosphate monosodium salt (hereinafter abbreviated to DOPA) chloroform solution was evaporated to be dryness, and 0.6 mL of PBS/5% dimethyl sulfoxide (hereinafter abbreviated to DMSO) was added thereto. After carrying out thorough suspension by vortex, freezing and thawing were repeated for 5 times. Liposomes were prepared using a liposome preparation device (manufactured by Avestin Inc.) and two syringes and diluted to be 0.5 mM with PBS/5% DMSO just before the immobilization.
Each compound having a final concentration in PBS/5% DMSO of 50 μM was prepared by adding 38 μL of 1× PBS to 2 μL of 10 mM DMSO solution and further adding 360 μL of 1× PBS/5% DMSO and measured.
All of the following analyses were carried out using the Biacore S51 (registered trademark) system, and the measuring conditions were set up by Biacore S51 Control Software.
The measuring temperature was set to be 37° C., and PBS/5% DMSO (pH 7.4 or pH 6.0) was used as the buffer. Series S Sensor Chip L1 was used as the sensor chip. DOPA was immobilized on one of the measuring spots on the sensor surface, and the central spot was used as the reference.
Immobilization of the liposomes was carried out for about 3 minutes at a flow rate of 10 μL/minute, and then each compound was added thereto at a flow rate of 30 μL/minute to measure the interaction. The measuring conditions are as shown in the following.
Assay buffer: PBS/5% DMSO (pH 7.4 or pH 6.0)
Measuring temperature: 37° C.
Sensor chip: Series S Sensor Chip L1
Flow rate: 10 μL/minute at the time of liposome immobilization, 30 μL/minute at the time of interaction measurement
Regeneration: 20 mM CHAPS (3-[(3-cholamidopropyl)dimethylammonio]-1-propanesulfonate), an isopropanol/50 mM aqueous solution of sodium hydroxide=40/60 (volume ratio) mixed solution (60 seconds)
The data treatment was carried out in accordance with the method of Abdiche et al. (Analytical Biochemistry, 328, 233-243 (2004)) using Biacore S51 Evaluation Software.
After correcting infinitesimal error of the concentration of DMSO contained in the sample solution, the value of binding response (RU) obtained by subtracting the value of reference was divided by the sample molecular weight. Additionally, since the thus obtained value is proportional to the capturing amount of liposome, it was divided by the capturing amount at the time of the cycling and multiplied by 10^6 to be used as the correction value (correction value=1000000×RU (compound to be tested)/molecular weight (compound to be tested) RU (liposome)).
By adding propranolol, amiodarone, desipramine, imipramine and procaine as controls, it was confirmed that variation of the binding response is within about 10 to 15%.
Compounds having a binding response value after correction of 100 or more were judged positive.

[5] = test system: Chinese hamster lung cells (CHL/IU); assay: Phospholipidosis detection system using a fluorescence labeling phospholipid analog (NBD-PE); assay type: cell-based
Description: Study by a Phospholipidosis Detection System using a Fluorescence Labeling Phospholipid Analog Cell suspension (7×10^4 cells/ml) of Chinese hamster lung cells (CHL/IU) prepared using MEM (minimum essential medium) was added to a 96 well plate (96 well clear bottom plate) by 100 μL/necessary number of wells (2 wells for 1 dosage) and cultured for about 24 hours. After the culturing and subsequent removal of the supernatants on the 96 well plate, the compounds having respective concentrations prepared by dissolving or suspending in MEM medium containing 25 μmol/L of nitrobenzoxazole dipalmitoyl phosphatidyl ethanolamine (NBD-PE) (hereinafter abbreviated to NBD-PE medium) were added thereto by 100 μL/ well and treated for about 24 hours. Treating concentration of each compound was set to be 6.25, 12.5, 25, 50 or 100 μmol/L. […] In this connection, 5 wells of an untreated control (MEM medium alone) or an NBD-PE control (prepared by adding 1/100 volume of DMSO to the NBD-PE medium) were arranged for each compound and cultured in the same manner. After completion of the culturing and subsequent two times of washing with 100 μL/well of phosphate buffered saline (hereinafter abbreviated to PBS) (−), 100 μL of the MEM medium was added to all of the treated wells including two empty wells for the WST-1 background control and cultured for about 0.5 hour. Fluorescence intensity of each well was measured using a microplate reader (manufactured by Molecular Devices, SPECTRA max M2; excitation wavelength 485 nm/fluorescence wavelength 535 nm). Using average value of 2 wells for each dosage, the phospholipid increasing ratio (%) based on NBD-PE control was calculated using the following formula. Phospholipid accumulation increasing ratio (%)=100×(fluorescence intensity of substance to be tested−fluorescence intensity of untreated control)/(fluorescence intensity of NBD-PE control−fluorescence intensity of untreated control) (iii) Cytotoxicity Test The Pre value was calculated by measuring the 96 well plate which was measured in the measurement of phospholipid accumulation, using the microplate reader (manufactured by Molecular Devices, SPECTRA max M2) at a dominant wavelength of 450 nm and a correction wavelength of 690 nm. Premix WST-1 was added to the pre-measured 96 well plate by 5 μL/well. After 2 to 4 hours of culture, the Aft value was calculated by measuring in the same manner as in the Pre measurement. The background control value was subtracted from each of the measured values. Using the value obtained by subtracting the Pre value from the Aft value, the cell growth ratio (%) was calculated using the following formula.

| Structure (SMILES) | IC50 [1] [nM] | IC50 [2] [nM] | inhibition at 0.3 mg/kg [3] [%] | Binding Level (RU) ([4]; compound 50 μM, DOPA liposomes on Sensor Chip L1, 37° C., PBS/5% DMSO (pH 7.4 or pH 6.0)) | Judgment ([4]; phospholipidosis inducing activity judged from artificial lipid membrane binding) | Pospholipid accumulation increasing ratio (% of 30 uM amiodarone) (Dose of compound: 100 uM) ([5]; compound 100 uM, about 24 hours with NBD-PE) | Judgment ([5]; phospholipidosis inducing activity, NBD-PE) |
| --- | --- | --- | --- | --- | --- | --- | --- |
| CC(C)(O)c1nc(-c2ccc(F)cc2F)c(-c2ccc(=O)n(-c3c(F)cccc3F)c2)o1 [Compound 89 (b), 1-(2,6-difluorophenyl)-5-[4-(2,4-difluorophenyl)-2-(1-hydroxy-1-methylethyl)-1,3-oxazol-5-yl]-2(1H)-pyridinone] | 1.7 | 0.7 | 82 | 15.5 | Negative |  |  |
| Cc1cc(Cl)cc(C)c1-n1cc(-c2nc(C(C)(CO)CO)oc2-c2ccc(F)cc2F)ccc1=O [Compound 6a, 1-(4-chloro-2,6-dimethylphenyl)-5-{5-(2,4-difluorophenyl)-2-[2-hydroxy-1-(hydroxymethyl)-1-methylethyl]-1,3-oxazol-4-yl}-2(1H)-pyridinone] | 12 | 2.6 |  |  |  |  |  |
| C[C@](O)(CO)c1nc(-c2ccc(F)cc2F)c(-c2ccc(=O)n(-c3c(F)cccc3F)c2)o1 [Example 210, 1-(2,6-difluorophenyl)-5-{4-(2,4-difluorophenyl)-2-[(1S)-1,2-dihydroxy-1-methylethyl]-1,3-oxazol-5-yl}-2(1H)-pyridinone] | 5.8 | 0.7 | 49 |  |  | 8 % of 30 uM amiodarone | Negative |
